# Results as given in patent US11014924B2, “Hydantoin containing deoxyuridine triphosphatase inhibitors” (CV6 Therapeutics (NI) Limited, priority 2016, dated 2021).
# Columns and labels:
# [1] = test system: SW620 cells; assay: MTS growth inhibition assay; format: cell-based; conditions: colorectal SW620; 5-FU between 0 and 100 μmol/L; 72 hours
# Experimental: (§1) The Cell Titer AQueous MTS assay (Promega) is carried out according to the manufacturers guidelines. […] The combination effect is determined by the combination index (CI) method utilizing Calcusyn software (Biosoft, Ferguson, Mo.). Fraction affected (FA) is calculated from the percent growth inhibition: FA=[…]. CI values <1, synergism; 1-1.2, additive and >1.2, antagonism.
# (§2) Test compounds are evaluated for their antitumor activity in colorectal cancer cells using the MTS growth inhibition assay. HCT116 and SW620 cells are exposed to increasing concentrations of each agent for 72 hours and growth inhibition is directly compared to vehicle-treated controls. The NSCLC cell lines A549 and H1299 are exposed to increasing concentrations of each agent for 72 hours and growth inhibition is directly compared to vehicle-treated controls.
# (§3) MTS growth inhibition assays are performed to evaluate the effectiveness of the test compounds alone and in combination with the fluoropyrimidine thymidylate synthase (TS) inhibitor 5-fluorouracil (5-FU) at inhibiting the growth of colorectal (HCT116 and SW620) cell line models. […] Simultaneous treatment with increasing concentrations of 5-FU and a test compound at fixed concentrations of 25 μmol/L is determined.
# [2] = test system: HCT116 cells; assay: MTS growth inhibition assay; format: cell-based; conditions: colorectal HCT116; 5-FU between 0 and 100 μmol/L; 72 hours
# Experimental: as §1, §2, §3
# [3] = molecular target: T1, recombinant human deoxyuridine nucleotidohydrolase (dUTPase) (Homo sapiens, UniProt P33316); assay: fluorescence-based dUTPase inhibition assay; format: biochemical; conditions: 5 ng recombinant dUTPase, 50 pmols dUTP, 37° C. for 8 mins
# T1 construct: made in house
# T1 sequence (P33316 1-164 isoform P33316-2): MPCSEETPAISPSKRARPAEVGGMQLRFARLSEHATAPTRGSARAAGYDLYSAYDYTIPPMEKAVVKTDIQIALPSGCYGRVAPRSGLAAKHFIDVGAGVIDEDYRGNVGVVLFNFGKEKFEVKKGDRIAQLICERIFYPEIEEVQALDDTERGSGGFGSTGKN
# From the text: Recombinant human deoxyuridine nucleotidohydrolase (dUTPase) is expressed and purified as described in Ladner R D, Carr S A, Huddleston M J, McNulty D E, Caradonna S J. J Biol Chem. 1996 Mar. 29; 271(13):7752-7. All drugs stocks are aliquoted and diluted as appropriate prior to use. The oligonucleotide primer, templates and fluorophore- and quencher-labeled detection probes are synthesized by Integrated DNA Technologies (Coralville, Iowa), subjected to polyacrylamide gel electrophoresis purification and reconstituted in Omnipur sterile nuclease-free water (EMD Chemicals USA, Gibbstown N.J.) at a stock concentration of 100 μmol/L. The two non-emissive (dark) quenching molecules incorporated into the detection probes include the Iowa black […] (IBFQ; absorption max 531 nm) and ZEN (non-abbreviation; absorption max 532 nm). The fluorescent label utilized is 6-FAM (5′-carboxyfluorescein; excitation max.=494 nm, emission max.=520 nm). Probes are further diluted to a working stock of 10 μmol/L and aliquoted to avoid repeated freeze/thaw cycles. […]
# Reaction mixtures contained primer, probe and template at an equimolar final concentration of 0.4 μmol/L. Magnesium chloride (MgCl2) is included at a final concentration of 2 mmol/L. Non-limiting dNTPs are included in the reaction mix in excess at a final concentration of 100 μmol/L (dUTP/dTTP is excluded). […] Thermal profiling and fluorescence detection is performed using a customized thermal program on board a Roche Lightcycler LC480 Instrument II. […] Raw fluorescence spectra for 6-FAM is measured at specified time intervals to follow assay progression on board a Roche LightCycler 480 Software Version 1.5 and exported and analyzed in Microsoft Excel (Microsoft, Redmond Wash.) and Prism (GraphPad Software, La Jolla Calif.). Fluorescence values for blank reactions (limiting dNTP omitted) are subtracted to give normalized fluorescence units (NFU) to account for background fluorescence.
# Test compounds are screened in a fluorescence-based assay. […]
# [4] = test system: H460 cells; assay: Colony forming assay; format: cell-based; conditions: non-small cell lung H460; FUdR between 0.5 and 2.5 μmol/L
# Experimental: (§4) Colony forming assay showing the ability of colon (SW620, HCT116), non-small cell lung (A549, H460, H1299 and H358) and breast (MCF7) cancer cells to survive and proliferate following transient 24 hour exposure to test compounds, FUdR and combinations are determined. Specifically, cells are seeded at densities between 50 and 100 cells/well in 24-well plates. Twenty-four hours later, cells are treated with increasing concentrations of a rtest compound, a fixed dose of FUdR and combinations of these. After 24 hours, drug is removed, cells are rinsed and allowed to outgrow for 10-14 days. At the conclusion of the outgrowth, cells are fixed in 60% ice cold methanol and stained with 0.1% crystal violet, scanned and counted. Data is presented as percentage of untreated controls (mean±SD). Fraction affected and combination indexes are calculated according to the method of Chou and Talalay where <1 is indicative of a synergistic drug interaction.
# (§5) Colony forming assays are performed to evaluate the effectiveness of test compounds alone and in combination with the fluoropyrimidine thymidylate synthase (TS) inhibitor fluorodeoxyuridine (FUdR) at reducing cancer cell viability in colorectal (HCT116), breast (MCF-7) and non-small cell lung (H1299, A549, H358 and H460) cell line models. […] In colorectal cancer cells, concentrations of test compounds ranging e.g., from 3.1 μmol/L to 50 μmol/L are combined with 0.5 μmol/L FUdR in HCT116 cells and 1 μmol/L FUdR in SW620 cells.
# [5] = test system: A549 cells; assay: Colony forming assay; format: cell-based; conditions: non-small cell lung A549; FUdR between 0.5 and 2.5 μmol/L
# Experimental: as §4, §5
# [6] = test system: H1299 cells; assay: Colony forming assay; format: cell-based; conditions: non-small cell lung H1299; FUdR between 0.5 and 2.5 μmol/L
# Experimental: as §4, §5
# [7] = test system: H358 cells; assay: Colony forming assay; format: cell-based; conditions: non-small cell lung H358; FUdR between 0.5 and 2.5 μmol/L
# Experimental: as §4, §5
# [8] = test system: MCF-7 cells; assay: Colony forming assay; format: cell-based; conditions: breast MCF-7; FUdR between 0.5 and 2.5 μmol/L
# Experimental: as §4, §5
# [9] = test system: HCT116 cells; assay: Colony forming assay; format: cell-based; conditions: colorectal HCT116; FUdR between 0.5 and 2.5 μmol/L
# Experimental: as §4, §5
structure (smiles),measurement,setting,value
"O=c1[nH]cc(F)c(=O)[nH]1 [Example 5-FU, 5-fluorouracil]",growth inhibition,[1],dose-dependent increases in growth inhibition
same,growth inhibition,[2],dose-dependent increases in growth inhibition
"C[C@@H](NS(=O)(=O)CCc1cccc(N2CC(=O)NC2=O)c1)c1ccc(F)c(OCC2CC2)c1 [Example 79, (R)—N-(1-(3-(cyclopropylmethoxy)-4-fluorophenyl)ethyl)-2-(3-(2,4-dioxoimidazolidin-1-yl)phenyl)ethane-1-sulfonamide]",IC50,[3],~100 µM
"C[C@@H](NS(=O)(=O)Cc1cccc(CN2CC(=O)NC2=O)c1)c1ccc(F)c(OCC2CC2)c1 [Example 81, (R)—N-(1-(3-(cyclopropylmethoxy)-4-fluorophenyl)ethyl)-1-(3-((2,4-dioxoimidazolidin-1-yl)methyl)phenyl)methanesulfonamide]",IC50,[3],80 µM
"C[C@@H](NS(=O)(=O)Cc1ccc(CN2CC(=O)NC2=O)cc1)c1ccc(F)c(OCC2CC2)c1 [Example 82, (R)—N-(1-(3-(cyclopropylmethoxy)-4-fluorophenyl)ethyl)-1-(4-((2,4-dioxoimidazolidin-1-yl)methyl)phenyl)methanesulfonamide]",IC50,[3],2.2 µM
"O=c1[nH]c(=O)n([C@H]2C[C@H](O)[C@@H](CO)O2)cc1F [FUdR, fluorodeoxyuridine]",colonies formed,[4],dose-dependent decreases in colonies formed
same,colonies formed,[5],dose-dependent decreases in colonies formed
same,colonies formed,[6],dose-dependent decreases in colonies formed
same,colonies formed,[7],dose-dependent decreases in colonies formed
same,colonies formed,[8],dose-dependent decreases in colonies formed
same,colonies formed,[9],dose-dependent decreases in colonies formed
